Measured values taken from US9206130B2, “Quinoline derivatives as AXL kinase inhibitors” (Max-Planck-Gesellschaft zur Förderung der Wissenschaften …, priority 2008, dated 2015).

What was measured:
[1] = molecular target: T1, wild type AXL (wtAXL) receptor tyrosine kinase (Homo sapiens, UniProt P30530); test: NIH-3T3-AXL cellular tyrosine kinase assay (inhibition of AXL phosphorylation); assay type: cell-based; conditions: AXL phosphorylation in NIH-3T3-AXL (clone 22) cells, serum-depleted, 2 h with compound, immunoprecipitation / anti-phosphotyrosine blot
T1 construct: WtAXL cDNA was cloned into vector pLXSN(ESK) and transfected into Phoenix E packaging cells; expressed in transfected cells; host or cells: NIH3T3 N7 mouse fibroblasts, retrovirally infected (clone 22)
T1 sequence (P30530 26-894): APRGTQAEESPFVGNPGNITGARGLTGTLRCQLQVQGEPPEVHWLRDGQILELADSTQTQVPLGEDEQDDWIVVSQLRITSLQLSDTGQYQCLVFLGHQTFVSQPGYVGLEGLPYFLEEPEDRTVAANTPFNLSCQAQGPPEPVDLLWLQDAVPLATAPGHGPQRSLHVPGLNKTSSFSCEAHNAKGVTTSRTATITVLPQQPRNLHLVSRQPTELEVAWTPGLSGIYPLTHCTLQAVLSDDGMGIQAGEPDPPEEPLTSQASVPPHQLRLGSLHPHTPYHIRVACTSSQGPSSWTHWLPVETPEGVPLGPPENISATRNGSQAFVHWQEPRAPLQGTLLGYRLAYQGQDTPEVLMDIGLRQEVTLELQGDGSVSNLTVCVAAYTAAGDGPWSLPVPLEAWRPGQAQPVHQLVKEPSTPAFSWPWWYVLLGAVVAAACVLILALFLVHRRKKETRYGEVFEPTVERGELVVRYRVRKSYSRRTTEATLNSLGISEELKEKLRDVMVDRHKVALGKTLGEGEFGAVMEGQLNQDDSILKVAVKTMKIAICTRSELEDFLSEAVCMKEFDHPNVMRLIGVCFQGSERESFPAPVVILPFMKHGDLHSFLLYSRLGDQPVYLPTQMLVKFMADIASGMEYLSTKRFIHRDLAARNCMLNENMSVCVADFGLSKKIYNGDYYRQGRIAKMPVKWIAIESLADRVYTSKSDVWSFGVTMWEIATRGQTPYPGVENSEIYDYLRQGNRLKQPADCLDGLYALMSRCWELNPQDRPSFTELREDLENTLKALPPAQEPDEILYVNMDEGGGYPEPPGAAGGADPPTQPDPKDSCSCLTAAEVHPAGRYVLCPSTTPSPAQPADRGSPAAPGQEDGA
Procedure, shortened: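 Compound inhibition of AXL autophosphorylation was read by 4G10 immunoblot after anti-AXL immunoprecipitation from lysates. Cells: NIH3T3 lines stably carrying retroviral wild-type human AXL, treated 2 h with compound dilution series.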

**Q.** Which IC50 [1] does the source give for `COc1cc2nccc(Oc3ccc(NS(=O)(=O)Cc4ccccc4)c(F)c3)c2cc1OC` [Example A73, N-[4-(6,7-Dimethoxy-quinolin-4-yloxy)-2-fluoro-phenyl]-C-phenyl-methanesulfonamide] here?
**A.** > 3 µM

**Q.** And the melting point?
**A.** 204 to 205 °C

**Q.** Which IC50 [1] does the source give for `COc1ccc(S(=O)(=O)Nc2ccc(Oc3ccnc4cc(OC)c(OC)cc34)cc2)cc1Br` [Example A74, 3-Bromo-N-[4-(6,7-dimethoxy-quinolin-4-yloxy)-phenyl]-4-methoxy-benzenesulfonamide] here?
**A.** > 1 µM

**Q.** And the melting point?
**A.** 211 to 212 °C

**Q.** Which results are given for `COc1cc2nccc(Oc3ccc(NS(=O)(=O)c4cccc(-c5ccccc5)c4)cc3C)c2cc1OC` [Example A75, Biphenyl-3-sulfonic acid [4-(6,7-dimethoxy-quinolin-4-yloxy)-3-methyl-phenyl]-amide]?
**A.** IC50 [1]: > 3 µM; melting point: 178 to 180 °C

**Q.** For `COc1cc2nccc(Oc3ccc(NS(=O)(=O)c4cccc(Oc5ccccc5)c4)cc3C)c2cc1OC` [Example A76, N-[4-(6,7-Dimethoxy-quinolin-4-yloxy)-3-methyl-phenyl]-3-phenoxy-benzenesulfonamide], which IC50 [1] is on record?
**A.** > 10 µM

**Q.** And the melting point?
**A.** 115 to 117 °C

**Q.** Which IC50 [1] does the source give for `COc1cc2nccc(Oc3ccc(NS(=O)(=O)c4cccc5ccccc45)cc3C)c2cc1OC` [Example A77, Naphthalene-1-sulfonic acid [4-(6,7-dimethoxy-quinolin-4-yloxy)-3-methyl-phenyl]-amide] here?
**A.** > 10 µM

**Q.** And the melting point?
**A.** 118 to 120 °C

**Q.** Which IC50 [1] does the source give for `COc1cc2nccc(Oc3ccc(NS(=O)(=O)c4cccc5cnccc45)cc3)c2cc1OC` [Example A78, Isoquinoline-5-sulfonic acid [4-(6,7-dimethoxy-quinolin-4-yloxy)-phenyl]-amide] here?
**A.** > 3 µM

**Q.** And the melting point?
**A.** 229 to 231 °C

**Q.** With `COc1cc2nccc(Oc3ccc(NS(=O)(=O)c4cc(Cl)cc(Cl)c4O)cc3C)c2cc1OC` [Example A79, 3,5-Dichloro-N-[4-(6,7-dimethoxy-quinolin-4-yloxy)-3-methyl-phenyl]-2-hydroxy-benzenesulfonamide] as the compound, how does the IC50 [1] read?
**A.** 0.48 µM

**Q.** And the melting point?
**A.** 113 to 117 °C

**Q.** For `COc1cc2nccc(Oc3ccc(NS(=O)(=O)c4cnc(C)[nH]4)cc3)c2cc1OC` [Example A80, 2-Methyl-3H-imidazole-4-sulfonic acid [4-(6,7-dimethoxy-quinolin-4-yloxy)-phenyl]-amide], which IC50 [1] is on record?
**A.** > 10 µM

**Q.** And the melting point?
**A.** 268 to 269 °C

**Q.** Which IC50 [1] does the source give for `COc1cc2nccc(Oc3ccc(NS(=O)(=O)c4ccc(-c5ccccc5)cc4)cc3)c2cc1OC` [Example A81, Biphenyl-4-sulfonic acid [4-(6,7-dimethoxy-quinolin-4-yloxy)-phenyl]-amide] here?
**A.** > 10 µM

**Q.** What about the melting point of the same compound?
**A.** 191 to 194 °C

**Q.** What does the source list for `COc1cc2nccc(Oc3ccc(NS(=O)(=O)c4cccc(-c5ncccn5)c4)cc3)c2cc1OC` [Example A82, N-[4-(6,7-Dimethoxy-quinolin-4-yloxy)-phenyl]-3-pyrimidin-2-yl-benzenesulfonamide]?
**A.** IC50 [1]: > 1 µM; melting point: 194 to 195 °C

**Q.** What does the source list for `COc1cc2nccc(Oc3ccc(NS(=O)(=O)c4cc5ccccc5s4)cc3)c2cc1OC` [Example A83, Benzo[b]thiophene-2-sulfonic acid [4-(6,7-dimethoxy-quinolin-4-yloxy)-phenyl]-amide]?
**A.** IC50 [1]: > 3 µM; melting point: 222 to 225 °C

**Q.** Which IC50 [1] does the source give for `COc1cc2nccc(Oc3ccc(NS(=O)(=O)c4csc5ccccc45)cc3)c2cc1OC` [Example A84, Benzo[b]thiophene-3-sulfonic acid [4-(6,7-dimethoxy-quinolin-4-yloxy)-phenyl]-amide] here?
**A.** > 3 µM

**Q.** What about the melting point of the same compound?
**A.** 267 to 270 °C

**Q.** What does the source list for `COc1cc2nccc(Oc3ccc(NS(=O)(=O)c4ccc5c(c4)CC(=O)N5C)cc3)c2cc1OC` [Example A85, 1-Methyl-2-oxo-2,3-dihydro-1H-indole-5-sulfonic acid [4-(6,7-dimethoxy-quinolin-4-yloxy)-phenyl]-amide]?
**A.** IC50 [1]: > 3 µM; melting point: 119 to 122 °C

**Q.** With `COc1cc2nccc(Oc3ccc(NS(=O)(=O)c4cccc(-c5ccccc5)c4)cc3)c2cc1OC` [Example A86, Biphenyl-3-sulfonic acid [4-(6,7-dimethoxy-quinolin-4-yloxy)-phenyl]-amide] as the compound, how does the IC50 [1] read?
**A.** > 1 µM

**Q.** What about the melting point of the same compound?
**A.** 197 to 200 °C

**Q.** Which IC50 [1] does the source give for `COc1ccc(S(=O)(=O)Nc2ccc(Oc3ccnc4cc(OC)c(OC)cc34)cc2F)cc1F` [Example A88, N-[4-(6,7-Dimethoxy-quinolin-4-yloxy)-2-fluoro-phenyl]-3-fluoro-4-methoxy-benzenesulfonamide] here?
**A.** > 1 µM

**Q.** What about the melting point of the same compound?
**A.** 230 to 232 °C

**Q.** With `COc1cc2nccc(Oc3ccc(NS(=O)(=O)c4cccc(-c5ccccc5)c4)c(C)c3)c2cc1OC` [Example A89, Biphenyl-3-sulfonic acid [4-(6,7-dimethoxy-quinolin-4-yloxy)-2-methyl-phenyl]-amide] as the compound, how does the IC50 [1] read?
**A.** 0.45 µM

**Q.** What about the melting point of the same compound?
**A.** 220 to 222 °C

**Q.** Which IC50 [1] does the source give for `COc1cc2nccc(Oc3ccc(NS(=O)(=O)c4cccc(Oc5ccccc5)c4)c(C)c3)c2cc1OC` [Example A90, N-[4-(6,7-Dimethoxy-quinolin-4-yloxy)-2-methyl-phenyl]-3-phenoxy-benzenesulfonamide] here?
**A.** > 10 µM

**Q.** And the melting point?
**A.** 169 to 170 °C

**Q.** Which IC50 [1] does the source give for `COc1cc2nccc(Oc3ccc(NS(=O)(=O)c4cccc5ccccc45)c(C)c3)c2cc1OC` [Example A91, Naphthalene-1-sulfonic acid [4-(6,7-dimethoxy-quinolin-4-yloxy)-2-methyl-phenyl]-amide] here?
**A.** > 10 µM

**Q.** What about the melting point of the same compound?
**A.** 233 to 235 °C

**Q.** For `COc1cc2nccc(Oc3ccc(NS(=O)(=O)c4ccc(-c5ccccc5)cc4)c(C)c3)c2cc1OC` [Example A92, Biphenyl-4-sulfonic acid [4-(6,7-dimethoxy-quinolin-4-yloxy)-2-methyl-phenyl]-amide], which IC50 [1] is on record?
**A.** > 10 µM

**Q.** And the melting point?
**A.** 228 to 230 °C

**Q.** With `COc1cc2nccc(Oc3ccc(NS(=O)(=O)c4cccc(-c5ncccn5)c4)c(C)c3)c2cc1OC` [Example A93, N-[4-(6,7-Dimethoxy-quinolin-4-yloxy)-2-methyl-phenyl]-3-pyrimidin-2-yl-benzenesulfonamide] as the compound, how does the IC50 [1] read?
**A.** > 3 µM

**Q.** What about the melting point of the same compound?
**A.** 103 to 105 °C

**Q.** What does the source list for `COc1cc2nccc(Oc3ccc(NS(=O)(=O)c4cc5ccccc5s4)c(C)c3)c2cc1OC` [Example A94, Benzo[b]thiophene-2-sulfonic acid [4-(6,7-dimethoxy-quinolin-4-yloxy)-2-methyl-phenyl]-amide]?
**A.** IC50 [1]: > 10 µM; melting point: 255 to 257 °C

**Q.** Which IC50 [1] does the source give for `COc1cc2nccc(Oc3ccc(NS(=O)(=O)c4ccc5c(c4)CC(=O)N5C)c(C)c3)c2cc1OC` [Example A95, 1-Methyl-2-oxo-2,3-dihydro-1H-indole-5-sulfonic acid [4-(6,7-dimethoxy-quinolin-4-yloxy)-2-methyl-phenyl]-amide] here?
**A.** > 10 µM

**Q.** What about the melting point of the same compound?
**A.** 115 to 116 °C

**Q.** For `COc1cc2nccc(Oc3ccc(NS(=O)(=O)c4cccc(-c5ccccc5)c4)cc3F)c2cc1OC` [Example A97, Biphenyl-3-sulfonic acid [4-(6,7-dimethoxy-quinolin-4-yloxy)-3-fluoro-phenyl]-amide], which IC50 [1] is on record?
**A.** 0.54 µM

**Q.** And the melting point?
**A.** 109 to 111 °C

**Q.** What does the source list for `COc1cc2nccc(Oc3ccc(NS(=O)(=O)c4cccc(Oc5ccccc5)c4)cc3F)c2cc1OC` [Example A98, N-[4-(6,7-Dimethoxy-quinolin-4-yloxy)-3-fluoro-phenyl]-3-phenoxy-benzenesulfonamide]?
**A.** IC50 [1]: 0.74 µM; melting point: 197 to 199 °C

**Q.** Which results are given for `COc1cc2nccc(Oc3ccc(NS(=O)(=O)c4cc(F)ccc4F)cc3F)c2cc1OC` [Example A99, N-[4-(6,7-Dimethoxy-quinolin-4-yloxy)-3-fluoro-phenyl]-2,5-difluoro-benzenesulfonamide]?
**A.** IC50 [1]: 0.18 µM; melting point: 232 to 234 °C

**Q.** With `COc1cc2nccc(Oc3ccc(NS(=O)(=O)c4cccc5ccccc45)cc3F)c2cc1OC` [Example A100, Naphthalene-1-sulfonic acid [4-(6,7-dimethoxy-quinolin-4-yloxy)-3-fluoro-phenyl]-amide] as the compound, how does the IC50 [1] read?
**A.** 0.74 µM

**Q.** And the melting point?
**A.** 118 to 120 °C

**Q.** Which results are given for `COc1cc2nccc(Oc3ccc(NS(=O)(=O)c4cccc(-c5ncccn5)c4)cc3F)c2cc1OC` [Example A101, N-[4-(6,7-Dimethoxy-quinolin-4-yloxy)-3-fluoro-phenyl]-3-pyrimidin-2-yl-benzenesulfonamide]?
**A.** IC50 [1]: > 1 µM; melting point: 105 to 107 °C

**Q.** What does the source list for `COc1cc2nccc(Oc3ccc(NS(=O)(=O)c4cccc(-c5ncccn5)c4)c(F)c3)c2cc1OC` [Example A102, N-[4-(6,7-Dimethoxy-quinolin-4-yloxy)-2-fluoro-phenyl]-3-pyrimidin-2-yl-benzenesulfonamide]?
**A.** IC50 [1]: > 1 µM; melting point: 137 to 140 °C
